Experimental data from patent US10632127B2, “Targeted notch pathway inhibitors” (Hoffmann-La Roche Inc., priority 2015, dated 2020).
Counter-ions that a name gives are not always drawn. Like-named read-outs stand apart in the source and are kept apart here.

Legend:
[1] = Pharmacokinetic assessment in male Wistar rats (i.v.); assay type: in vivo, rat; details: for concentration at 0.25 h / concentration at 0.5 h: rat, intravenous
Experimental: (§1) For PK evaluation, the compounds were administered i.p to male C57BL/6 mice in suspension (gelatine/saline 7.5%/0.62% in water) using an administration volume of 4 mL/kg. Blood samples were collected in tubes containing EDTA, plasma was separated by centrifugation and stored at −80° C. Liver and kidney samples (˜100 mg aliquots) were homogenized in three volumes of water using Precellys tissue homogenization tubes (precellys.com). 25 μL of each tissue homogenate was further diluted with 25 μL blank plasma to produce the final tissue homogenate for extraction. All samples were analyzed using protein precipitation followed by LC-MS/MS analysis. Briefly, 50 μL plasma or final tissue homogenate were mixed with 50 μL 0.5M HClO4/acetonitrile 9/1 (containing 200 ng/mL internal standard bosentan). Samples were stirred and 300 μL water was added followed by centrifugation at 5600 rpm (4° C., 10 min). 10 μL supernatant was analyzed by LC/MS analysis. Calibration standards in plasma were prepared the same way. The LC column and conditions used were: Phenomenex, Polar RP, 4 μm, 50×2.1 mm at 0.4 mL/min flow rate with a 3 min gradient from 95% solvent A to 95% solvent B (Solvent A: Water/ACN/HCOOH, 90:10:0.1+10 mM NH4 formate; Solvent B: Water/ACN/HCOOH, 10:90:0.1+10 mM NH4 formate). Mass spectrometric conditions were: Thermo TSQ Vantage with positive heated electrospray ionization in MS/MS mode. Compounds mass transitions monitored were m/z 320.7 to 119.9. PK parameters for all studies were calculated using Phoenix WinNonlin Software.
We next determined the stability, tissue distribution and cleavage rate in plasma, liver and kidney of the designed prodrugs in male Wistar rats. In the in vivo screen, the kinetics and distribution of the prodrugs Ac-γ-Glu-SecrI (13a) and Ac-γ-Glu-O-SecrI (13c) were compared with the active γ-secretase inhibitor SecrI (8). After i.v. administration in male Wistar rats, the disappearance of the prodrugs and the formation of the active amine-SecrI (11a), amine-O-SecrI (11b) and SecrI (8) were compared in plasma, liver and kidney (Table 7A-C). First, we determined the pharmacokinetics (PK) behavior of SecrI (8) following i.v. administration (Table 7A). […] Liver and kidney exposure were much higher, with same exposure in liver and kidney. […] The selectivity towards kidney stayed constant over time. The carbonate analogue Ac-γ-Glu-O-SecrI (13c) prodrug was converted to a lower extent than the Ac-γ-Glu-SecrI (13a) to amine-O-SecrI (11b) but more to the linker free γ-secretase inhibitor 8 (Table 7C).
Plasma and tissue concentrations of administered compound (A-C) and formed amine-SecrI (11a), amine-O-SecrI (11b) or SecrI (8) (B-C) were determined following i.v. administration in rats (no standard deviation given due to sparse sampling; n≤3 rats per time point). Numbers in parentheses represent relative amounts with the exposure of kidney arbitrarily set at each time point to 100%. […] BQL=below quantifiable limit.

[2] = molecular target: Notch signal transduction pathway; test: In vitro Notch signal transduction pathway activity assay (DR215/F2 luciferase reporter); assay type: cell-based, human; details: for IC50 for blockade of the Notch pathway, range in words: DR215/F2 cell reporter assay; for IC50: Homo sapiens, 215/F2 reporter cell line, 19 h, mean of at least 3 experiments
Experimental: The compounds were dissolved in dimethyl sulfoxide (DMSO) at 10 mM stock solution, aliquoted and stored at −4° C. until use, then diluted in PBS or cell culture medium. In the experimental settings, controls containing increasing concentrations of DMSO, corresponding to the amount of DMSO of the diluted compounds were always included. For in vivo experiments, the compounds were dissolved in 0.9% NaCl, incubated 30 min at 40° C. and sonicated for 5 min.
The requirement of proteolytic activation of the prodrugs to inhibit Notch cleavage by the γ-secretase, was investigated using a reporter assay (Table 3). The DR215/F2 cell line expresses a reporter construct designed to monitor the activity of the Notch signal transduction pathway. The DR215/F2 cell line 39 carries two transgenes: the firefly luciferase reporter gene expressed under the control of the Gal4 promoter and the human Notch1 activator gene fused with the yeast Gal4 transcription factor. This assay confirmed that the prodrugs were able to inhibit γ-secretase and the activation of the Notch pathway. The DR215/F2 cell reporter assay was also used to determine the IC50 for blockade of the Notch pathway by all the compounds designed and prepared.
The values were determined using the 215/F2 reporter cell line for Notch activation by the γ-secretase. All values are the mean of at least 3 experiments.
The preparation and characterization of rat brain-derived EC219 endothelial cells have been described in Juillerat-Jeanneret, L. et al. In Vitro Cell. Dev. Biol. 1992, 28A, 537-543. These cells express high levels of APA and γ-GT activities and can be used for determining kinetics in living cells, and were chosen as APA- and γ-GT-positive representative cell models. EC219 cells were grown in DMEM medium containing 1 g/l glucose, 10% heat-inactivated fetal calf serum (FCS, EuroClone, UK) supplemented with 100 U/mL penicillin and 100 μg/mL streptomycin (P/S) on uncoated cell culture plastic ware. The HEK293 and HK2 human kidney cells are available from the ATCC (American Tissue Culture Collection, Manassas, Va., USA). HEK293 cells were grown on uncoated cell culture plastic ware in Iscove modified Dulbecco medium (IMDM, Life Technologies) containing 10% FCS and P/S. HK2 cells were grown on uncoated cell culture plastic ware in DMEM/F-12 GlutaMAX medium (Gibco) containing 5% FCS, P/S, 1% ITS (1.0 mg/ml bovine insulin, 0.55 mg/ml human transferrin and 0.5 μg/ml sodium selenite, Sigma-Aldrich) and 5 ng/ml hydrocortisone. The human HEK293-derived DR215/F2 embryonic kidney cell line, stably transfected with pFR Luc and APP-Notch Gal (plasmid DR215) as described in WO 2006/061136 A2 and Brockhaus, M. Neuroreport 1998 9, 1481-1486, were maintained using IMDM with 10% FCS supplemented with P/S and kept under double-selection with 150 μg/ml G-418 and 50 μg/ml hygromycin B on coated (1:100 Poly-L-lysine) cell culture plastic ware. In this assay, the Notch-Gal4 protein is bound to the cell membrane via its trans-membrane domain. The Notch intracellular domain is released by proteolytic cleavage mediated by the γ-secretase and moves to the cell nucleus where it activates the reporter luciferase gene transcript. Inhibition of γ-secretase thus decreases luciferase activity. Briefly, cultures were grown in 96-well microplates to 80% confluence; the cells were then washed in PBS and exposed to decreasing concentrations of the γ-secretase-inhibitor analogues in complete IMDM culture medium without red phenol at 37° C. for 19 h. Then 75 μl of supernatant from each well was removed and the luciferase activity was determined by adding 25 μl of Steady-Glo luciferase assay reagent (Promega).

[3] = Pharmacokinetic assessment in C57BL/6 healthy wild-type mice (i.p.); assay type: in vivo, mouse; details: C57BL/6 mice, 10 mg/kg i.p.
Experimental: as §1
We next determined the stability, tissue distribution and cleavage rate in plasma, liver and kidney of the designed prodrugs in non-diseased mice. In the in vivo screen, the kinetics and distribution of γ-secretase inhibitor prodrugs Ac-γ-Glu-SecrI (13a), Ac-α-Glu-SecrI (15a) and H-α-Glu-SecrI (15b) were compared with the active γ-secretase inhibitor amine-SecrI (11a). After i.p administration (10 mg/kg) in C57BL/6 mice, the disappearance of the prodrugs and the formation of the active amine-SecrI (11a) were compared in plasma, liver and kidney (Table 5). First, we determined the pharmacokinetics (PK) behavior of amine-SecrI (11a) following i.p. administration (Table 5A). […] Liver and kidney exposure were much higher, with approximately 4.5-fold higher exposure in liver compared to kidney. […] The selectivity towards kidney appeared to decrease over time, probably due to fast clearance and re-equilibration of the amine-SecrI (11a). However, the high selectivity at earlier time-points assured that the total exposure over time was much higher in the kidney compared to the liver.

In the case of `C[C@H]1Oc2ccc(F)cc2N(CCOC(=O)OCCN)C(=O)[C@H]1NC(=O)[C@@](C)(O)C(=O)NCC(F)(F)C(F)(F)F` [Compound 11b, 2-Aminoethyl 2-((2R,3S)-7-fluoro-3-((S)-2-hydroxy-2-methyl-3-oxo-3-(2,2,3,3,3-pentafluoropropylamino)propanamido)-2-methyl-4-oxo-3,4-dihydrobenzo[b][1,4]oxazepin-5(2H)-yl)ethyl carbonate hydrochloride], the “Plasma concentration of formed 11b” value ([1]; 13c 1.5 mg/kg i.v., 0.25 h) is reported as “BQL”, the “Plasma concentration of formed 11b” value ([1]; 13c 1.5 mg/kg i.v., 0.5 h) is reported as “BQL” and the “Plasma concentration of formed 11b” value ([1]; 13c 1.5 mg/kg i.v., 4 h) is reported as “BQL”. The “Formed 11b in kidney, relative amount (arbitrarily set to 100%)” value ([1]; 13c 1.5 mg/kg i.v., 7 h) was “(100) %”, the “Plasma concentration of formed 11b” value ([1]; 13c 1.5 mg/kg i.v., 7 h) was “BQL” and the “kidney selectivity, in words” value ([1]; formed after 13c i.v.) was “very good kidney selectivity”. The “IC50 for blockade of the Notch pathway, range in words” value [2] was “low nanomolar range” and the IC50 [2] was 0.0005 µM.
With `CC(=O)N[C@@H](CCC(=O)NCCOC(=O)OCCN1C(=O)[C@@H](NC(=O)[C@@](C)(O)C(=O)NCC(F)(F)C(F)(F)F)[C@@H](C)Oc2ccc(F)cc21)C(=O)O` [Compound 13c, (S)-2-acetamido-5-(2-((2-((2R,3S)-7-fluoro-3-((S)-2-hydroxy-2-methyl-3-oxo-3-(2,2,3,3,3-pentafluoropropylamino)propanamido)-2-methyl-4-oxo-3,4-dihydrobenzo[b][1,4]oxazepin-5(2H)-yl)ethoxy)carbonyloxy)ethylamino)-5-oxopentanoic acid] the “Kidney concentration of 13c” value ([1]; 13c 1.5 mg/kg i.v., 4 h) was “BQL”, the “Liver concentration of 13c” value ([1]; 13c 1.5 mg/kg i.v., 4 h) was “BQL” and the “Plasma concentration of 13c” value ([1]; 13c 1.5 mg/kg i.v., 4 h) was “BQL”. The “Kidney concentration of 13c” value ([1]; 13c 1.5 mg/kg i.v., 7 h) was “BQL”, the “Liver concentration of 13c” value ([1]; 13c 1.5 mg/kg i.v., 7 h) was “BQL” and the “Plasma concentration of 13c” value ([1]; 13c 1.5 mg/kg i.v., 7 h) was “BQL”. The “conversion to amine-O-SecrI (11b), in words” value ([1]; 13c i.v., compared with 13a) was “lower extent”, the “conversion to the linker-free γ-secretase inhibitor 8, in words” value ([1]; i.v.) was “significantly converted” and the concentration at 0.25 h ([1]; kidney, 13c 1.5 mg/kg i.v., 0.25 h, read-out: Kidney concentration of 13c) was 20.5 ng/g. The concentration at 0.5 h ([1]; kidney, 13c 1.5 mg/kg i.v., 0.5 h, read-out: Kidney concentration of 13c) was 3.8 ng/g, the concentration at 0.25 h ([1]; liver, 13c 1.5 mg/kg i.v., 0.25 h, read-out: Liver concentration of 13c) was 196 ng/g and the concentration at 0.5 h ([1]; liver, 13c 1.5 mg/kg i.v., 0.5 h, read-out: Liver concentration of 13c) was 32.3 ng/g. It also gave a concentration at 0.25 h ([1]; plasma, 13c 1.5 mg/kg i.v., 0.25 h, read-out: Plasma concentration of 13c) of 53 ng/mL, a concentration at 0.5 h ([1]; plasma, 13c 1.5 mg/kg i.v., 0.5 h, read-out: Plasma concentration of 13c) of 4.6 ng/mL and an IC50 [2] of 0.17 µM.
For `C[C@H]1Oc2ccc(F)cc2N(CCOC(=O)NCCNC(=O)[C@@H](N)CCC(=O)O)C(=O)[C@H]1NC(=O)[C@@](C)(O)C(=O)NCC(F)(F)C(F)(F)F` [Compound 15b, (S)-4-amino-5-(2-((2-((2R,3S)-7-fluoro-3-((S)-2-hydroxy-2-methyl-3-oxo-3-(2,2,3,3,3-pentafluoropropylamino)propanamido)-2-methyl-4-oxo-3,4-dihydrobenzo[b][1,4]oxazepin-5(2H)-yl)ethoxy)carbonylamino)ethylamino)-5-oxopentanoic acid hydrochloride], the “conversion to amine-SecrI (11a), in words” value [3] was “overall highest conversion”, the “Kidney concentration of administered compound” value ([3]; 4 h) was “BQL” and the “Plasma concentration of administered compound” value ([3]; 4 h) was “BQL”. The “Kidney concentration of administered compound” value ([3]; 7 h) was “BQL”, the “Plasma concentration of administered compound” value ([3]; 7 h) was “BQL” and the concentration at 0.5 h ([3]; male, mouse, kidney, ip, read-out: Kidney concentration of administered compound) was 8.51 ng/g. For the same compound, the concentration at 0.5 h ([3]; male, mouse, liver, ip, read-out: Liver concentration of administered compound) was 277 ng/g, the concentration at 4 h ([3]; male, mouse, liver, ip, 4 h, read-out: Liver concentration of administered compound) was 60.7 ng/g and the concentration at 7 h ([3]; male, mouse, liver, ip, 7 h, read-out: Liver concentration of administered compound) was 5.78 ng/g. For the same compound, the concentration at 0.5 h ([3]; male, mouse, plasma, ip, read-out: Plasma concentration of administered compound) was 3.67 ng/mL, the “IC50 for blockade of the Notch pathway, range in words” value [2] was “high nM range” and the IC50 [2] was 0.258 µM.
